Experimental findings from ChEMBL document CHEMBL1201862, “PubChem BioAssay data set” (2004) are described below.

Among the test systems are HCT-116; TK-10; MDA-N; HL-60; DU-145; MCF7; SK-MEL-28; 786-0; COLO 205; NCI-H460; HCT-15; NCI-H226; CAKI-1; LOX IMVI; PC-3; MOLT-4; MDA-MB-231; OVCAR-5; SF-268; OVCAR-3.
What all share (assay): DTP human tumour cell line panel, 48 h

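Growth conditions: 96-well plates. Treatment: test compound, 48 hours, 5 concentrations. Analysis: linear interpolation between bracketing concentrations; unreached endpoints set to highest concentration. At the GI50, growth is halved.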 Activity calls are given as the source filed them. No stated cut-off is given here; in the data, active = GI50 up to about 1.1 µM and inactive = higher.

`Cc1cn([C@H]2C[C@H](O)[C@@H](CO)O2)c(=O)nc1N`: the GI50 in the assay with HCT-116, in the assay with TK-10, in the assay with MDA-N, with HL-60, in the assay with DU-145 and in the assay with MCF7 was > 100 µM (inactive) each time. For the same compound, the GI50 (in general, the concentration at which growth is held to half of that of the control) was > 100 µM (inactive) in the assay on SK-MEL-28; > 100 µM (inactive) in the assay on 786-0; > 100 µM (inactive) in the assay on COLO 205; > 100 µM (inactive) with NCI-H460; > 100 µM in the assay with HCT-15; > 100 µM (inactive) with NCI-H226. In addition, the GI50 in the assay on CAKI-1, in the assay with LOX IMVI, in the assay with PC-3, in the assay with MOLT-4, in the assay with MDA-MB-231 and with OVCAR-5 was > 100 µM (inactive) in each case. The GI50 with SF-268 and in the assay with OVCAR-3 was > 100 µM (inactive) in each case.

For the compound `C=CCCC1(CC(Sc2ccccc2)P(=O)(c2ccccc2)c2ccccc2)OCCO1` (configuration not stated), the GI50 in the assay with HCT-116, in the assay with TK-10, in the assay on MDA-N, in the assay on HL-60, in the assay with DU-145 and in the assay with MCF7 was > 10 µM (inactive) each time. Besides, the GI50 in the assay with SK-MEL-28 is > 10 µM (inactive); with 786-0, > 10 µM (inactive); in the assay on COLO 205, > 10 µM (inactive); in the assay with NCI-H460, > 10 µM (inactive); in the assay with HCT-15 it was > 10 µM; with NCI-H226, > 10 µM (inactive). The GI50 in the assay on CAKI-1, in the assay with LOX IMVI, in the assay on PC-3, in the assay on MOLT-4, in the assay with MDA-MB-231 and with OVCAR-5 was > 10 µM (inactive) in each case. In addition, the GI50 in the assay with SF-268 and in the assay with OVCAR-3 was > 10 µM (inactive) each time.

For `CNC(=O)OCc1c(COC(=O)NC)c(C)n(-c2ccc(Br)cc2)c1C`, the GI50 with HCT-116 is 10.8 µM (inactive); in the assay on TK-10, 11 µM (inactive); in the assay with MDA-N it was 15.7 µM (inactive); with HL-60, 6.25 µM (inactive); with DU-145, 14.3 µM (inactive); with MCF7, 11.3 µM (inactive). Further, the GI50 in the assay on SK-MEL-28 was 16.4 µM (inactive); in the assay on 786-0, 9.82 µM (inactive); in the assay with COLO 205, 13.4 µM (inactive); with NCI-H460, 8.2 µM (inactive); in the assay with HCT-15, 14 µM; with NCI-H226, 1.24 µM (inactive). For the same compound, the GI50 with CAKI-1 is 4.02 µM (inactive); in the assay on LOX IMVI, 6.24 µM (inactive); in the assay on PC-3 it was 17.2 µM (inactive); in the assay on MOLT-4, 6.79 µM (inactive); in the assay with MDA-MB-231, 13.9 µM (inactive); with OVCAR-5, 12.9 µM (inactive). In addition, the GI50 is 10.7 µM (inactive) in the assay with SF-268 and 14.6 µM (inactive) in the assay with OVCAR-3.

Take `COc1cc2c3cc1Oc1c(OC)c(OC)cc4c1C(Cc1ccc(O)c(c1)-c1cc(ccc1OC)CC3N(C)CC2)N(C)CC4` (configuration not stated): the GI50 with HCT-116 was 12.3 µM (inactive); in the assay with TK-10 it was 32.9 µM (inactive); with MDA-N, 13.6 µM (inactive); with HL-60, 2.66 µM (inactive); with DU-145, 50.8 µM (inactive); with MCF7 it was 16.5 µM (inactive). For the same compound, the GI50 is 27 µM (inactive) in the assay with SK-MEL-28; 29 µM (inactive) in the assay on 786-0; 25.1 µM (inactive) in the assay with COLO 205; 16 µM (inactive) in the assay on NCI-H460; 6.07 µM with HCT-15; 40.6 µM (inactive) in the assay with NCI-H226. Moreover, the GI50 in the assay with CAKI-1 is 16.4 µM (inactive); with LOX IMVI, 4.8 µM (inactive); in the assay on PC-3, 20.4 µM (inactive); in the assay on MOLT-4 it was 11.8 µM (inactive); with MDA-MB-231, 13.3 µM (inactive); in the assay on OVCAR-5, 44.8 µM (inactive). Moreover, the GI50 is 19.1 µM (inactive) in the assay with SF-268 and 21.6 µM (inactive) in the assay with OVCAR-3.

In the case of `O=c1c2cc([N+](=O)[O-])ccc2n2n1Cc1ccccc1CC2`, the GI50 was > 100 µM (inactive) in the assay with HCT-116; 38.1 µM (inactive) with TK-10; > 100 µM (inactive) in the assay on MDA-N; > 100 µM (inactive) in the assay with HL-60; > 100 µM (inactive) in the assay with DU-145; > 100 µM (inactive) with MCF7. Also, the GI50 in the assay on SK-MEL-28 was > 100 µM (inactive); in the assay with 786-0, > 100 µM (inactive); in the assay on COLO 205 it was > 100 µM (inactive); with NCI-H460, > 100 µM (inactive); in the assay on HCT-15 it was > 100 µM; with NCI-H226, > 100 µM (inactive). Moreover, the GI50 in the assay on CAKI-1, in the assay on LOX IMVI, in the assay on PC-3, in the assay on MOLT-4, with MDA-MB-231 and with OVCAR-5 was > 100 µM (inactive) throughout. In addition, the GI50 in the assay on SF-268 and in the assay with OVCAR-3 was > 100 µM (inactive) each time.

Regarding `CCCC1=C(OC)C(=O)c2c(C)cc(Cl)nc2C1=O`, the GI50 with HCT-116 was 2.62 µM (inactive); in the assay on TK-10, 19.9 µM (inactive); in the assay with MDA-N, 1.73 µM (inactive); with HL-60, 1.45 µM (inactive); with DU-145 it was 15.1 µM (inactive); in the assay with MCF7 it was 2.47 µM (inactive). The GI50 is 6.81 µM (inactive) in the assay with SK-MEL-28; 2.37 µM (inactive) in the assay with 786-0; 7.93 µM (inactive) in the assay with COLO 205; 13.7 µM (inactive) in the assay on NCI-H460; 3.05 µM with HCT-15; 16.7 µM (inactive) in the assay on NCI-H226. Further, the GI50 with CAKI-1 was 8.97 µM (inactive); in the assay on LOX IMVI, 2.01 µM (inactive); in the assay with PC-3 it was 9.08 µM (inactive); in the assay with MOLT-4, 1.55 µM (inactive); with MDA-MB-231, 5.53 µM (inactive); in the assay with OVCAR-5, 14.5 µM (inactive). Moreover, the GI50 was 7.08 µM (inactive) in the assay with SF-268 and 2.81 µM (inactive) in the assay on OVCAR-3.

For `CC1=NNC(=O)[C@H]2[C@H]1CCC1[C@@H]2CC[C@]2(C)[C@@H](O)CC[C@@H]12` (some centres not stated), the GI50 in the assay on HCT-116, with TK-10, in the assay on MDA-N, with HL-60, with DU-145 and in the assay on MCF7 was > 100 µM (inactive) each time. The GI50 with SK-MEL-28 was > 100 µM (inactive); in the assay on 786-0, > 100 µM (inactive); with COLO 205 it was > 100 µM (inactive); in the assay with NCI-H460, > 100 µM (inactive); with HCT-15, > 100 µM; with NCI-H226, > 100 µM (inactive). Also, the GI50 with CAKI-1, with LOX IMVI, in the assay with PC-3, in the assay with MOLT-4, in the assay with MDA-MB-231 and in the assay on OVCAR-5 was > 100 µM (inactive) each time. Further, the GI50 with SF-268 and with OVCAR-3 was > 100 µM (inactive) in each case.

As to `C/C(=N\NC(=S)N1CCCCC1)c1cccc(C)n1`, the GI50 in the assay on HCT-116 was < 0.01 µM (active); in the assay with MDA-N it was 0.0871 µM (active); with HL-60, < 0.01 µM (active); in the assay on DU-145, 0.153 µM (active); in the assay on MCF7, < 0.01 µM (active); with SK-MEL-28 it was 0.0968 µM (active). For the same compound, the concentration for 50% growth inhibition (GI50) with 786-0 is < 0.01 µM (active); with COLO 205 it was < 0.01 µM (active); with NCI-H460, < 0.0136 µM (active); with HCT-15 it was < 0.01 µM; in the assay with NCI-H226 it was < 0.01 µM (active); in the assay on CAKI-1, < 0.01 µM (active). Further, the GI50 is < 0.01 µM (active) in the assay with LOX IMVI; < 0.01 µM (active) in the assay with PC-3; < 0.01 µM (active) in the assay with MOLT-4; < 0.01 µM (active) in the assay with MDA-MB-231; 0.149 µM (active) in the assay on OVCAR-5; < 0.0103 µM (active) with SF-268. In addition, the GI50 in the assay on OVCAR-3 is < 0.01 µM (active).

`CCOC(=O)c1c(C)cc(=O)n2c1[nH]c1ccccc12`: the GI50 with HCT-116 was 57.1 µM (inactive); in the assay with TK-10, 99.3 µM (inactive); in the assay with MDA-N, 64 µM (inactive); with HL-60 it was > 100 µM (inactive); with DU-145, > 100 µM (inactive); in the assay on MCF7, > 100 µM (inactive). Moreover, the GI50 is > 100 µM (inactive) in the assay with SK-MEL-28; 63.5 µM (inactive) in the assay on 786-0; > 100 µM (inactive) with COLO 205; 14.1 µM (inactive) with NCI-H460; 50.9 µM in the assay with HCT-15; > 100 µM (inactive) with NCI-H226. Moreover, the GI50 in the assay on CAKI-1 was 17.2 µM (inactive); in the assay with LOX IMVI, > 100 µM (inactive); with PC-3, > 100 µM (inactive); with MOLT-4 it was > 100 µM (inactive); in the assay with MDA-MB-231, 36.6 µM (inactive); in the assay on OVCAR-5, > 100 µM (inactive). Moreover, in the assay on OVCAR-3, the GI50 was > 100 µM (inactive).

Turning to `CCOC(=O)C1(NC(=O)OC(C)(C)C)CCc2[nH]oc(=O)c2C1` (configuration not stated), the GI50 with HCT-116, in the assay with TK-10, in the assay on MDA-N, with HL-60, with DU-145 and in the assay on MCF7 was > 100 µM (inactive) each time. Besides, the GI50 in the assay with SK-MEL-28 is > 100 µM (inactive); in the assay with 786-0, > 100 µM (inactive); in the assay with COLO 205 it was > 100 µM (inactive); in the assay with NCI-H460, > 100 µM (inactive); in the assay on HCT-15, > 100 µM; in the assay on NCI-H226, > 100 µM (inactive). The GI50 with CAKI-1, in the assay on LOX IMVI, in the assay on PC-3, in the assay on MOLT-4, in the assay with MDA-MB-231 and in the assay on OVCAR-5 was > 100 µM (inactive) each time. Also, the GI50 in the assay with OVCAR-3 is > 100 µM (inactive).
